What all share (format): functional
For assay [1], the system named is Helicoverpa assulta. Nature of the assay: Insecticidal activity against sixth-instar larvae of Helicoverpa assulta YN5 at 21 to 3390 mg/l after 48 hr by chi-squared analysis.
Assay [2] concerns Helicoverpa assulta. Nature of the assay: Insecticidal activity against sixth-instar larvae of Helicoverpa assulta GZ4 at 21 to 3390 mg/l after 48 hr by chi-squared analysis.
The subject of assay [3] is Helicoverpa assulta. Description: Resistance factor, ratio of LD50 for sixth-instar larvae of Helicoverpa assulta YN3 to LD50 for sixth-instar larvae of Helicoverpa assulta at 21 to 3390 mg/l.
Assay [4] has as its system Helicoverpa assulta. Description: Resistance factor, ratio of LD50 for sixth-instar larvae of Helicoverpa assulta GZ3 to LD50 for sixth-instar larvae of Helicoverpa assulta at 21 to 3390 mg/l.
Assay [5] deals with Helicoverpa assulta. Description: Resistance factor, ratio of LD50 for sixth-instar larvae of Helicoverpa assulta YN5 to LD50 for sixth-instar larvae of Helicoverpa assulta at 21 to 3390 mg/l.
Assay [6] relates to Helicoverpa assulta. Description: Resistance factor, ratio of LD50 for sixth-instar larvae of Helicoverpa assulta YN3 to LD50 for sixth-instar larvae of Helicoverpa assulta at 1.8 to 183360 mg/l.
The test system of assay [7] is Helicoverpa assulta. Nature of the assay: Resistance factor, ratio of LD50 for sixth-instar larvae of Helicoverpa assulta YN6 to LD50 for sixth-instar larvae of Helicoverpa assulta at 1.8 to 183360 mg/l.
The test system of assay [8] is Helicoverpa assulta. Description: Insecticidal activity against sixth-instar larvae of Helicoverpa assulta at 1.8 to 183360 mg/l after 48 hr by chi-squared analysis.
Assay [9] relates to Helicoverpa assulta. Nature of the assay: Insecticidal activity against sixth-instar larvae of Helicoverpa assulta SD1 at 1.8 to 183360 mg/l after 48 hr by chi-squared analysis.
Assay [10] relates to Helicoverpa assulta. Description: Insecticidal activity against sixth-instar larvae of Helicoverpa assulta HN1 at 39 to 12630 mg/l after 48 hr by chi-squared analysis.
Assay [11] concerns Helicoverpa assulta. Description: Insecticidal activity against sixth-instar larvae of Helicoverpa assulta at 39 to 12630 mg/l after 48 hr by chi-squared analysis.
Assay [12] deals with Helicoverpa assulta. Nature of the assay: Insecticidal activity against sixth-instar larvae of Helicoverpa assulta YN1 at 39 to 12630 mg/l after 48 hr by chi-squared analysis.
The test system of assay [13] is Helicoverpa assulta. Description: Resistance factor, ratio of LD50 for sixth-instar larvae of Helicoverpa assulta YN2 to LD50 for sixth-instar larvae of Helicoverpa assulta at 39 to 12630 mg/l.

Molecules are shown by their SMILES.

A word on the LD50: it is the dose expected to kill half of the subjects tested. Read a low LD50 as greater toxicity. As to `CNC(=O)ON=C(C)SC` [METHOMYL], the LD90 in [1] amounted to 37.7 µg/g; in assay [2], 55.5 µg/g. Moreover, the 50% lethal dose (LD50) in assay [1] (Helicoverpa assulta, YN5, 48 h) was found to be 14.3 mg/kg; in [2] (Helicoverpa assulta, GZ4, 48 h), 16.7 mg/kg. Further, the Ratio came out at 23.1 in [3], 14.4 in [4] and 9.87 in [5].

For `CC(C)C(C(=O)OC(C#N)c1cccc(Oc2ccccc2)c1)c1ccc(Cl)cc1` (stereo not given) [FENVALERATE], the values for the Ratio in assay [6] and in assay [7] were 1403 and 4115, respectively. Moreover, the LD90 in assay [8] was 0.723 µg/g; in [9] it was 14.8 µg/g. The LD50 in [8] (Helicoverpa assulta, 48 h) was 0.162 mg/kg; in assay [9] (Helicoverpa assulta, SD1, 48 h) it was 1.59 mg/kg.

In the case of `CCOP(=S)(OCC)O/N=C(\C#N)c1ccccc1` [PHOXIM], the figures for the LD90 in [10], in assay [11] and in [12] were 23.1 µg/g, 5.54 µg/g and 57.3 µg/g, respectively. Further, the 50% lethal dose (LD50) in assay [10] (Helicoverpa assulta, HN1, 48 h) was determined as 10.5 mg/kg; in assay [11] (Helicoverpa assulta, 48 h) it was 2.34 mg/kg; in assay [12] (Helicoverpa assulta, YN1, 48 h) it was 20.4 mg/kg. Moreover, the Ratio in assay [13] was 14.9.

The record behind these values is ChEMBL document CHEMBL3046781, “Resistance of Helicoverpa assulta (Guenée) (Lepidoptera: Noctuidae) to fenvalerate, phoxim and methomyl in China” (2009).
